# Reference: US20240150293A1, “SPIROCYCLOHEXANE DERIVATIVES, PHARMACEUTICAL COMPOSITIONS CONTAINING THEM AND THEIR USES AS ANTI-APOPTOTIC INHIBITORS” (LES LABORATOIRES SERVIER, priority 2021, published 2024)
# Read-outs that look alike come from different tables or passages of the source.
# Legend:
# [1] = target: Cy5-labelled Mcl1 (amino acids 171-321) C286S protein (UniProtKB Q07820) (Homo sapiens (Human), UniProt Q07820, C286S); assay: Inhibition of Mcl-1 by the fluorescence quenching assay (Example A, Method B); type: binding
# In short: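 Eleven-point compound series incubated 2 h at room temperature with 1 nM Cy5-tagged protein and quencher-labelled PUMA peptide at 10, 20 or 400 nM in HEPES/NaCl/Tween 20, pH 7.4, 5% DMSO. IC50 for 50% fluorescence increase by 4-parameter fit, then Ki derived (complete cKi or estimated eKi).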
# NCI-H929 cell lines = assay: In vitro cytotoxicity, CellTiter-Glo (CTG) assay (Example B, Method B); type: cell-based; settings: NCI-H929 cells, 48 h incubation, read-out: C50
# Protocol: Cellular viability was monitored with the cell viability assay (Cell Titer-Glo®) on NCI-H929 cell lines. The CellTiter-Glo® (CTG) Luminescent Cell Viability Assay (from Promega) is a homogeneous method to determine the number of viable cells in culture based on quantitation of the ATP present, which signals the presence of metabolically active cells.
# Concentration response of test compounds are performed with 10 mM stock solutions (DMSO), 11-points curve, in a 384-well compound plate. The assay plate is prepared by stamping 120 nL from compound dilution plate of all different concentrations (e.g. 10 mM to have final 30 μM assay test) into a cell culture microplate, using Echo acoustic liquid handling (Labcyte, Beckman). 40 μl of cell solution is added and cells are incubated with compounds for 48 h at 37° C., 5% CO2. CTG was added to the cells (according to the manufacturer instructions) and luminescence intensity was recorded using the Pherastar plate reader (BMG).
# This assay provides in vitro cellular efficacy of compounds of Formula (I) tested, measuring the C50, defined as the concentration needed to reach 50% of the cellular viability.
# Cy5-labelled Mcl1 (amino acids 171-321) C286S protein, sequence (Q07820 171-321 C286S): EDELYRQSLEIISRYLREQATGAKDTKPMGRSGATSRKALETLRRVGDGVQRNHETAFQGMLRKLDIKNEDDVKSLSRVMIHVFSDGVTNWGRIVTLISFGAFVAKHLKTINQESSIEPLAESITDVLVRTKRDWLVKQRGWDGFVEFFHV
Ki [1] [nM],"inhibition at 1 µM ([1]; @ 1 μM, read-out: Mcl-1 inhibition, % at a single concentration) [%]",Ki ([1]; Ki determined from IC50) [nM],SMILES,"IC50 (NCI-H929 cell lines; Homo sapiens, NCI-H929, 48 h) [nM]",IC50 (NCI-H929 cell lines) [nM]
0.0505,,,"C[C@@H](COc1ccnc2c1[C@H](C)CCC2)C[C@H]1Cc2ccc(COC3CCCO3)cc2[C@]12CC[C@@](Nc1cccc(Cl)c1)(C(=O)O)CC2 (stereo partly drawn) [Example 872, (1r,2′S,4S)-4-(3-chloroanilino)-2′-[(2R)-2-methyl-3-{[(5R)-5-methyl-5,6,7,8-tetrahydroquinolin-4-yl]oxy}propyl]-6′-{[(oxolan-2-yl)oxy]methyl}-2′,3′-dihydrospiro[cyclohexane-1,1′-indene]-4-carboxylic acid]",52.9,
0.177,,,"C[C@@H](COc1ccnc2c1[C@H](C)CCC2)C[C@H]1Cc2cc(Cl)ccc2[C@]12CC[C@@](Nc1cccc(Cl)c1)(C(=O)O)CC2 [Example 778, (1r,2′S,4S)-5′-chloro-4-(3-chloroanilino)-2′-[(2R)-2-methyl-3-{[(5R)-5-methyl-5,6,7,8-tetrahydroquinolin-4-yl]oxy}propyl]-2′,3′-dihydrospiro[cyclohexane-1,1′-indene]-4-carboxylic acid]",67.2,
2.01,,,"C[C@@H](COc1ccnc2c1[C@H](C)CCC2)C[C@H]1Cc2ccccc2[C@]12CC[C@@](Nc1ccc(Cl)c(Cl)c1)(C(=O)O)CC2 [Example 715, (1r,2′S,4S)-4-(3,4-dichloroanilino)-2′-[(2R)-2-methyl-3-{[(5R)-5-methyl-5,6,7,8-tetrahydroquinolin-4-yl]oxy}propyl]-2′,3′-dihydrospiro[cyclohexane-1,1′-indene]-4-carboxylic acid]",1290,
1.84,,,"C[C@@H](COc1ccnc2c1[C@H](C)CCC2)C[C@@H]1Cc2ccc(-c3cc[nH]c3)cc2[C@]12CC[C@@](Nc1cccc(Cl)c1)(C(=O)O)CC2 [Example 882, (1r,2′R,4R)-4-(3-chloroanilino)-2′-[(2R)-2-methyl-3-{[(5R)-5-methyl-5,6,7,8-tetrahydroquinolin-4-yl]oxy}propyl]-6′-(1H-pyrrol-3-yl)-2′,3′-dihydrospiro[cyclohexane-1,1′-indene]-4-carboxylic acid]",1300,
0.254,,,"COc1ccc2c(c1)[C@]1(CC[C@@](Nc3cccc(Cl)c3)(C(=O)O)CC1)[C@H](C[C@@H](C)COc1ccnc3c1[C@H](C)CCC3)C2 [Example 782, (1r,2′R,4R)-4-(3-chloroanilino)-6′-methoxy-2′-[(2R)-2-methyl-3-{[(5R)-5-methyl-5,6,7,8-tetrahydroquinolin-4-yl]oxy}propyl]-2′,3′-dihydrospiro[cyclohexane-1,1′-indene]-4-carboxylic acid]",235,

# Continued, molecule first:
SMILES,Ki [1] [nM],"inhibition at 1 µM ([1]; @ 1 μM, read-out: Mcl-1 inhibition, % at a single concentration) [%]",Ki ([1]; Ki determined from IC50) [nM],"IC50 (NCI-H929 cell lines; Homo sapiens, NCI-H929, 48 h) [nM]",IC50 (NCI-H929 cell lines) [nM]
"CC(=O)OC(C)OC(=O)[C@]1(Nc2cccc(Cl)c2)CC[C@@]2(CC1)c1cc3c(cc1C[C@@H]2C[C@@H](C)COc1ccnc2c1[C@H](C)CCC2)OCO3 (stereo partly drawn) [Example 939, 1-(acetyloxy)ethyl (1r,4S,6′S)-4-(3-chloroanilino)-6′-[(2R)-2-methyl-3-{[(5R)-5-methyl-5,6,7,8-tetrahydroquinolin-4-yl]oxy}propyl]-6′,7′-dihydro-2′H-spiro[cyclohexane-1,5′-indeno[5,6-d][1,3]dioxole]-4-carboxylate]",1.7,,,157,
"C[C@@H]1CCCc2nccc(OC[C@@H](C[C@H]3Cc4ccccc4[C@]34CC[C@@](Nc3cccc(Cl)c3)(C(=O)O)CC4)c3ccccc3)c21 [Example 797, (1r,2′S,4S)-4-(3-chloroanilino)-2′-[(2S)-3-{[(5R)-5-methyl-5,6,7,8-tetrahydroquinolin-4-yl]oxy}-2-phenylpropyl]-2′,3′-dihydrospiro[cyclohexane-1,1′-indene]-4-carboxylic acid]",0.259,,,251,
"CCC1COc2cc3c(cc2OC1)[C@]1(CC[C@@](Nc2cccc(Cl)c2)(C(=O)O)CC1)[C@@H](C[C@@H](C)COc1ccnc2c1[C@H](C)CCC2)C3 (single isomer, unassigned) [Example 989]",0.0288,,,,88.5
"C[C@@H](COc1ccnc2c1[C@H](C)CCC2)C[C@H]1Cc2cc3c(cc2[C@]12CC[C@@](Nc1cccc(Cl)c1)(C(=O)OCC(F)(F)F)CC2)OCO3 [Example 932, 2,2,2-trifluoroethyl (1r,4S,6′S)-4-(3-chloroanilino)-6′-[(2R)-2-methyl-3-{[(5R)-5-methyl-5,6,7,8-tetrahydroquinolin-4-yl]oxy}propyl]-6′,7′-dihydro-2′H-spiro[cyclohexane-1,5′-indeno[5,6-d][1,3]dioxole]-4-carboxylate]",213,,,13600,
"CCOC(=O)[C@]1(Nc2cccc(Cl)c2)CC[C@@]2(CC1)c1cc3c(cc1C[C@@H]2C[C@@H](C)COc1ccnc2c1[C@H](C)CCC2)OCO3 [Example 930, ethyl (1r,4S,6′S)-4-(3-chloroanilino)-6′-[(2R)-2-methyl-3-{[(5R)-5-methyl-5,6,7,8-tetrahydroquinolin-4-yl]oxy}propyl]-6′,7′-dihydro-2′H-spiro[cyclohexane-1,5′-indeno[5,6-d][1,3]dioxole]-4-carboxylate]",,4.5,,> 30000,
"CC(C)[C@@H]1CCOc2cc3c(cc2O1)[C@]1(CC[C@@](Nc2cccc(Cl)c2)(C(=O)O)CC1)[C@@H](C[C@@H](C)COc1ccnc2c1[C@H](C)CCC2)C3 [Example 998, (1r,4S,4'S,8′S)-4-(3-chloroanilino)-8′-[(2R)-2-methyl-3-{[(5R)-5-methyl-5,6,7,8-tetrahydroquinolin-4-yl]oxy}propyl]-4′-(propan-2-yl)-3′,4′,8′,9′-tetrahydro-2′H-spiro[cyclohexane-1,7′-indeno[5,6-b][1,4]dioxepine]-4-carboxylic acid]",0.106,,,63.1,
"C[C@@H](COc1ccnc2c1[C@H](C)CCC2)C[C@H]1Cc2cc3c(cc2[C@]12CC[C@@](Nc1cccc(Cl)c1)(C(=O)O)CC2)O[C@@H](C)[C@H](C)O3 [Example 975, (1r,2′S,3'S,4S,7′S)-4-(3-chloroanilino)-2′,3′-dimethyl-7′-[(2R)-2-methyl-3-{[(5R)-5-methyl-5,6,7,8-tetrahydroquinolin-4-yl]oxy}propyl]-2′,3′,7′,8′-tetrahydrospiro[cyclohexane-1,6′-indeno[5,6-b][1,4]dioxine]-4-carboxylic acid]",0.0244,,,80.2,
"CC[C@@H]1COc2cc3c(cc2O1)[C@]1(CC[C@@](Nc2cccc(Cl)c2)(C(=O)O)CC1)[C@@H](C[C@@H](C)COc1ccnc2c1[C@H](C)CCC2)C3 [Example 979, (1r,3′R,4S,7′S)-4-(3-chloroanilino)-3′-ethyl-7′-[(2R)-2-methyl-3-{[(5R)-5-methyl-5,6,7,8-tetrahydroquinolin-4-yl]oxy}propyl]-2′,3′,7′,8′-tetrahydrospiro[cyclohexane-1,6′-indeno[5,6-b][1,4]dioxine]-4-carboxylic acid]",0.0299,,,67.2,
"Cc1c(Cl)cccc1N[C@]1(C(=O)O)CC[C@]2(CC1)c1cc3c(cc1CN2C[C@@H](C)COc1ccnc2c1[C@H](C)CCC2)OCO3 [Example 49, (1s,4S)-4-(3-chloro-2-methylanilino)-6′-[(2R)-2-methyl-3-{[(5R)-5-methyl-5,6,7,8-tetrahydroquinolin-4-yl]oxy}propyl]-6′,7′-dihydro-2′H-spiro[cyclohexane-1,5′-[1,3]dioxolo[4,5-f]isoindole]-4-carboxylic acid]",,,0.31,242,
"C[C@@H](COc1ccnc2c1[C@H](C)CC[C@H]2F)C[C@H]1Cc2cc3c(cc2[C@]12CC[C@@](Nc1cccc(Cl)c1)(C(=O)O)CC2)OCCO3 [Example 964, (1r,4S,7′S)-4-(3-chloroanilino)-7′-[(2R)-3-{[(5R,8R)-8-fluoro-5-methyl-5,6,7,8-tetrahydroquinolin-4-yl]oxy}-2-methylpropyl]-2′,3′,7′,8′-tetrahydrospiro[cyclohexane-1,6′-indeno[5,6-b][1,4]dioxine]-4-carboxylic acid]",0.0579,,,109,
"C[C@@H](COc1ccnc2c1[C@H](C)CCC2)C[C@H]1Cc2cc3c(cc2[C@]12CC[C@@](Nc1cccc(Cl)c1)(C(=O)NS(C)(=O)=O)CC2)OCO3 [Example 957, (1r,4S,6′S)-4-(3-chloroanilino)-N-(methanesulfonyl)-6′-[(2R)-2-methyl-3-{[(5R)-5-methyl-5,6,7,8-tetrahydroquinolin-4-yl]oxy}propyl]-6′,7′-dihydro-2′H-spiro[cyclohexane-1,5′-indeno[5,6-d][1,3]dioxole]-4-carboxamide]",6.24,,,4700,
"COC(=O)OC(C)OC(=O)[C@]1(Nc2cccc(Cl)c2)CC[C@@]2(CC1)c1cc3c(cc1C[C@@H]2C[C@@H](C)COc1ccnc2c1[C@H](C)CCC2)OCO3 (stereo partly drawn) [Example 943, 1-[(methoxycarbonyl)oxy]ethyl (1r,4S,6′S)-4-(3-chloroanilino)-6′-[(2R)-2-methyl-3-{[(5R)-5-methyl-5,6,7,8-tetrahydroquinolin-4-yl]oxy}propyl]-6′,7′-dihydro-2′H-spiro[cyclohexane-1,5′-indeno[5,6-d][1,3]dioxole]-4-carboxylate]",1,,,228,
